Our source for the IC50 values is patent publication US20180148418A1, “AMIDO-SUBSTITUTED CYCLOHEXANE DERIVATIVES” (Bayer Pharma Aktiengesellschaft, priority 2015, published 2018).

pIC50: −log10 of the molar value.

In experiment [1] the test system is wildtype Wnt signaling cascade. In words: HEK293 TOP assay (Super TopFlash luciferase reporter, Wnt-3a stimulated). The experiment is classed as cell-based. The conditions noted are these: Homo sapiens, HEK293, 16 h, HEK293 TOP reporter cells, Wnt3a at EC50, 16 hours. In outline: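 Compound series (50 μM down to 15 nM, 3.16-fold) diluted from DMSO 50-fold into CAFTY buffer, pH 7.4, 2 mM Ca^2+, 0.01% BSA, applied to Wnt-3a-stimulated HEK293 TopFlash and FOP reporter lines in parallel. Cells seeded 10000/well 24 h before; luciferase signal measured.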

For experiment [2], the system named is HEK293 cells cotransfected with the FOP control vector. The experiment in a line: HEK293 FOP assay (control reporter with non-functional TCF elements). The experiment is classed as cell-based. The conditions noted are these: Homo sapiens, 16 hours. Summed up: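 Compound series from 50 μM down to 15 nM, prediluted in DMSO then 50-fold into CAFTY buffer (pH 7.4, 2 mM Ca2+, 0.01% BSA), tested alongside TOP cells on a Geneticin-selected HEK293 FOP line whose TCF elements are replaced by a random sequence; recombinant human Wnt-3a applied at 2500-5 ng/ml.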

For experiment [3], the target named is T1, TNKS2 (Homo sapiens, UniProt Q9H2K2).
T1 construct: purchased BPS Bioscience, San Diego, USA 80572 (TNKS2 Histone Ribosylation Assay Kit)
T1 sequence (Q9H2K2 1-1166): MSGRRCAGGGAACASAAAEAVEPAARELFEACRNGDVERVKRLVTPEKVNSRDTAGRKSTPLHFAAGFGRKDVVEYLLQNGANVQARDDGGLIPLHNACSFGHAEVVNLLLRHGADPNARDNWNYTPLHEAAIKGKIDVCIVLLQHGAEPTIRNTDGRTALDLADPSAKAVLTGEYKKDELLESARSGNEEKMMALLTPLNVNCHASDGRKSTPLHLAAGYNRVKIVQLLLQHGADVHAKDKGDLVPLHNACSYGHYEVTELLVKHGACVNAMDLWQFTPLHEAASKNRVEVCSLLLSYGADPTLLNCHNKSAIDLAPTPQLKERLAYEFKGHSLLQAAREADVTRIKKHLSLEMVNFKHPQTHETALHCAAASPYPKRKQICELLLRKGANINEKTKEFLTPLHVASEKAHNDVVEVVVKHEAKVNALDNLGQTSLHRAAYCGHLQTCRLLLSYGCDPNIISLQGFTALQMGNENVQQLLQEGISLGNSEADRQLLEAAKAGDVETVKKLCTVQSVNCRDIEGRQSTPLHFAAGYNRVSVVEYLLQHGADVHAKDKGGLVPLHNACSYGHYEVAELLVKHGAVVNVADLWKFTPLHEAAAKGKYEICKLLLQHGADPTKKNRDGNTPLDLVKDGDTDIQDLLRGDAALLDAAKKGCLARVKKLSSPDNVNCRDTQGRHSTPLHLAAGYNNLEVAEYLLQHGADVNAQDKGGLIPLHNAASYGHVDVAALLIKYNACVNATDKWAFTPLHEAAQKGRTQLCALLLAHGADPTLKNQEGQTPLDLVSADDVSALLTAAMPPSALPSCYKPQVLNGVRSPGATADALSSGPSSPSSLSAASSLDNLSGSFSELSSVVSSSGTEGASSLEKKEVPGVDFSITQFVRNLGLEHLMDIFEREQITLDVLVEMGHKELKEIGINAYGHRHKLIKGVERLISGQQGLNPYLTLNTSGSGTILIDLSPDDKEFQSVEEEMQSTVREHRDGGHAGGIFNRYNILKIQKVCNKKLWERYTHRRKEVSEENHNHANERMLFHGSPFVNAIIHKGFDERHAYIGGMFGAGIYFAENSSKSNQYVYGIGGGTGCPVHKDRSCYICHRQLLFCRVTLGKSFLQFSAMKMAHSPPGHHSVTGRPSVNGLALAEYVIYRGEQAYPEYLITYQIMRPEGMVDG
In words: TNKS2 Assay B (auto-parsylation, [3H]-NAD+ SPA). It counts as biochemical. The conditions noted are these: 6 nM TNKS2, auto-parsylation, over night at room temperature.

With `COCC(C)NC(=O)c1nc[nH]c1C(=O)N[C@H]1CC[C@H](C(=O)Nc2cnccc2Cl)CC1` (stereo partly drawn) [Example 99, N^5-{trans-4-[(4-chloropyridin-3-yl)carbamoyl]cyclohexyl}-N^4-(1-methoxypropan-2-yl)-1H-imidazole-4,5-dicarboxamide], the negative logarithm of the IC50 (pIC50) in experiment [1] is 7.29; in experiment [2] it was 4.70; in experiment [3] it was 6.96.
For `Cc1cc(NC(=O)[C@H]2CC[C@H](NC(=O)c3[nH]cnc3C(=O)NCC(C)(C)O)CC2)c(Cl)cc1F` [Example 100, N^5-{trans-4-[(2-chloro-4-fluoro-5-methylphenyl)carbamoyl]cyclohexyl}-N^4-(2-hydroxy-2-methylpropyl)-1H-imidazole-4,5-dicarboxamide], in that order: 6.70, 4.41 and 6.96.
Regarding `COC(C)(C)CNC(=O)c1nc[nH]c1C(=O)N[C@H]1CC[C@H](C(=O)Nc2cc(C)c(F)cc2Cl)CC1` [Example 101, N^5-{trans-4-[(2-chloro-4-fluoro-5-methylphenyl)carbamoyl]cyclohexyl}-N^4-(2-methoxy-2-methylpropyl)-1H-imidazole-4,5-dicarboxamide], the pIC50 in experiment [1] was 6.44; in experiment [2], 4.46; in experiment [3], 7.00.
For `Cc1cc(C)n2ncc(C(=O)N[C@H]3CC[C@H](C(=O)Nc4ccncc4Cl)CC3)c2n1` [Example 102, N-{trans-4-[(3-chloropyridin-4-yl)carbamoyl]cyclohexyl}-5,7-dimethylpyrazolo[1,5-a]pyrimidine-3-carboxamide], in that order: 6.92, no more than 4.30 and 6.70.
Regarding `O=C(N[C@H]1CC[C@H](C(=O)Nc2ccncc2Cl)CC1)c1cnc2cccnn12` [Example 103, N-{trans-4-[(3-chloropyridin-4-yl)carbamoyl]cyclohexyl}imidazo[1,2-b]pyridazine-3-carboxamide], the pIC50 is 6.39 in experiment [1], 4.57 in experiment [2] and 6.54 in experiment [3].
The corresponding values for `Cc1cnc2c(C(=O)N[C@H]3CC[C@H](C(=O)Nc4ccncc4Cl)CC3)cnn2c1` [Example 104, N-{trans-4-[(3-chloropyridin-4-yl)carbamoyl]cyclohexyl}-6-methyl pyrazolo[1,5-a]pyrimidine-3-carboxamide] are 7.06, no more than 4.30 and 7.18.
The corresponding values for `O=C(N[C@H]1CC[C@H](C(=O)Nc2ccncc2Cl)CC1)c1cnn2cccnc12` [Example 105, N-{trans-4-[(3-chloropyridin-4-yl)carbamoyl]cyclohexyl}pyrazolo[1,5-a]pyrimidine-3-carboxamide] are 6.62, no more than 4.30 and 6.92.
Consider `CCOC(=O)c1cnc2c(C(=O)N[C@H]3CC[C@H](C(=O)Nc4ccc(F)cc4Cl)CC3)cnn2c1` [Example 106, ethyl 3-({trans-4-[(2-chloro-4-fluorophenyl)carbamoyl]cyclohexyl}carbamoyl)pyrazolo[1,5-a]pyrimidine-6-carboxylate], for which the negative logarithm of the IC50 (pIC50) in experiment [1] is 6.40; in experiment [2], no more than 4.30; in experiment [3] it was 7.82.
Consider `O=C(N[C@H]1CC[C@H](C(=O)Nc2ccc(F)cc2Cl)CC1)c1cnn2ccc(N3CCOCC3)nc12` [Example 107, N-{trans-4-[(2-chloro-4-fluorophenyl)carbamoyl]cyclohexyl}-5-(morpholin-4-yl)pyrazolo[1,5-a]pyrimidine-3-carboxamide], for which the values for the negative-log IC50 (pIC50) in experiment [1], in experiment [2] and in experiment [3] were 6.06, no more than 4.30 and 7.13, respectively.
On to `O=C(N[C@H]1CC[C@H](C(=O)Nc2ccc(F)cc2Cl)CC1)c1cnn2ccc(N3CCCC3)nc12` [Example 108], for which the pIC50 in experiment [1] is 6.74; in experiment [2] it was no more than 4.30; in experiment [3] it was 7.22.
Regarding `CN1CCN(c2ccn3ncc(C(=O)N[C@H]4CC[C@H](C(=O)Nc5ccc(F)cc5Cl)CC4)c3n2)CC1` [Example 109], the pIC50 in experiment [1] was 5.52; in experiment [2] it was no more than 4.30; in experiment [3] it was 7.42.
For `COCc1cc(C)n2ncc(C(=O)N[C@H]3CC[C@H](C(=O)Nc4ccc(F)cc4Cl)CC3)c2n1` [Example 110, N-{trans-4-[(2-chloro-4-fluorophenyl)carbamoyl]cyclohexyl}-5-(methoxymethyl)-7-methylpyrazolo[1,5-a]pyrimidine-3-carboxamide], in that order: 6.57, no more than 4.30 and 7.07.
Regarding `COCc1cc(C)nc2c(C(=O)N[C@H]3CC[C@H](C(=O)Nc4ccc(F)cc4Cl)CC3)cnn12` [Example 111, N-{trans-4-[(2-chloro-4-fluorophenyl)carbamoyl]cyclohexyl}-7-(methoxymethyl)-5-methylpyrazolo[1,5-a]pyrimidine-3-carboxamide], the pIC50 in experiment [1] is 7.14; in experiment [2] it was no more than 4.30; in experiment [3] it was 6.68.
The corresponding values for `COCc1cc(C)n2ncc(C(=O)N[C@H]3CC[C@H](C(=O)Nc4c(F)cc(F)cc4Cl)CC3)c2n1` [Example 112, N-{trans-4-[(2-chloro-4,6-difluorophenyl)carbamoyl]cyclohexyl}-5-(methoxymethyl)-7-methylpyrazolo[1,5-a]pyrimidine-3-carboxamide] are 6.72, no more than 4.30 and 7.17.
As for `Cc1nc2c(C(=O)N[C@H]3CC[C@H](C(=O)Nc4ccc(F)cc4Cl)CC3)cnn2c2c1CCC2` [Example 113, N-{trans-4-[(2-chloro-4-fluorophenyl)carbamoyl]cyclohexyl}-5-methyl-7,8-dihydro-6H-cyclopenta[e]pyrazolo[1,5-a]pyrimidine-3-carboxamide], the negative-log IC50 (pIC50) in experiment [1] was 7.03; in experiment [2], no more than 4.30; in experiment [3], 7.28.
On to `CC(O)CNc1ccc2ncc(C(=O)N[C@H]3CC[C@H](C(=O)Nc4ccc(F)cc4Cl)CC3)n2n1` (stereo partly drawn) [Example 114, N-{trans-4-[(2-chloro-4-fluorophenyl)carbamoyl]cyclohexyl}-6-[(2-hydroxypropyl)amino]imidazo[1,2-b]pyridazine-3-carboxamide], for which the pIC50 in experiment [1] was 5.80; in experiment [2] it was no more than 4.30; in experiment [3], 6.32.
For `CNC(=O)c1[nH]cnc1C(=O)NC12CCC(C(=O)Nc3ccc(F)cc3Cl)(CC1)CC2` [Example 115, N^4-{4-[(2-chloro-4-fluorophenyl)carbamoyl]bicyclo[2.2.2]oct-1-yl}-N^5-methyl-1H-imidazole-4,5-dicarboxamide], the pIC50 in experiment [1] is 6.74; in experiment [2], no more than 4.30; in experiment [3] it was 6.72.
The corresponding values for `CNC(=O)c1[nH]cnc1C(=O)NC12CCC(C(=O)Nc3c(F)cc(F)cc3Cl)(CC1)CC2` [Example 116, N^4-{4-[(2-chloro-4,6-difluorophenyl)carbamoyl]bicyclo[2.2.2]oct-1-yl}-N^5-methyl-1H-imidazole-4,5-dicarboxamide] are 6.48, 5.06 and 6.23.
Regarding `O=C(NC12CCC(C(=O)Nc3ccc(F)cc3Cl)(CC1)CC2)c1cnn2cccnc12` [Example 117, N-{4-[(2-chloro-4-fluorophenyl)carbamoyl]bicyclo[2.2.2]oct-1-yl}pyrazolo[1,5-a]pyrimidine-3-carboxamide], the negative logarithm of the IC50 (pIC50) is 6.66 in experiment [1], no more than 4.30 in experiment [2] and 6.34 in experiment [3].
